Assay results published in patent US7070940B2, “Method for determining the ability of a compound to modify the interaction between parkin and the p38 protein” (Aventis Pharma S.A., priority 2002, dated 2006).

Key:
[1] = system: interaction Parkin-p38; assay: Reverse two-hybrid screening assay in yeast (growth on 5-fluoroorotic acid); type: cell-based, Saccharomyces cerevisiae; settings: internal control; agar medium with 0.35 g/l 5FOA, 30° C., 48 h and/or 72 h
Description: The Saccharomyces cerevisiae strain used for the screening can be the L40 strain used to clone the p38 protein. However, this strain must contain the URA3 reporter gene in place of the HIS3 reporter gene under the control of a promoter containing a sequence to which the LexA protein attaches to induce transcription. This strain may also contain a disruption in the erg6 gene and/or genes such as pdr5 or pdr11, to increase cell permeability to the compounds tested during the screening (WO96/10082).
This strain is simultaneously transformed with the two plasmids encoding the p38 protein or parkin used in the previous two-hybrid test or else encoding homologous or truncated forms of these two proteins. The interaction between these proteins confers a Ura+phenotype on the doubly-transformed strain, by reconstituting a transcription factor capable of inducing transcription of the URA3 reporter gene. This Ura+ phenotype also makes it possible to use the sensitivity of the strain to 5-fluoorotic acid (5FOA) for reverse two-hybrid “positive” screening. […]
48 h and/or 72 h and they may be read by visual examination. […] The compounds which have made it possible to obtain such a response of strain growth restoration are identified as being positive and recorded in a database.

[2] = system: COS7 cells overexpressing p38; assay: p38 perinuclear inclusions (aggresomes) by immunocytochemistry in COS7 cells; type: cell-based; settings: 15 μg/ml overnight
Description: The cells (COS7, 2.5′ 104 and SH-SY5Y cells, 8′ 104) were transfected with the plasmids indicated (pcDNA3-myc-p38, 0.5 ·g; or pcDNA3-myc-p38 and pcDNA3-HA-Parkin, 0.25 ·g of each), and treated or not treated with: epoxomicin (Affiniti, 1 μM), nocodazole (Sigma, 15 μg/ml), cytochalasin D (Sigma, 200 nM) overnight. Forty-eight hours after transfection, the cells were fixed and subjected to standard immunocytochemistry procedures. The polyclonal primary antibodies used were: anti-p38 (M. Mirande, 1:20 000), anti-Parkin (Asp5, 1:400), anti-proteasome 20S (Affiniti, 1:2500), anti-Hsp70 (Stressgen, 1:2500), anti-ubiquitin (Dako, 1:100) and anti-actin (Sigma, 1:100). The monoclonal primary antibodies were: anti ·a-tubulin (clone DM 1A, Sigma, 1:1000), antivimentin (DAKO, clone V9, 1:100) and anti-myc (clone 9E10, Santa Cruz, 1:400). The secondary antibodies were: anti-mouse IgGs conjugated to the fluorochrome Alexa Fluor 488 (Interchim, 1:200) and anti-rabbit IgGs conjugated to the fluorochrome CY3 (Jackson ImmunoResearch, 1:500). The cells were analysed by confocal microscopy.
We analysed the nature and the composition of the p38 protein perinuclear inclusions formed when p38 is overexpressed in cells of the COS7 line. In particular, we wondered whether these inclusions could be of the aggresome type (Kopito et al., 2000). […]

SMILES	yeast strain growth in the presence of 5FOA [1]	effect on p38 perinuclear aggregates [2]
O=c1cnn([C@@H]2O[C@H](CO)[C@@H](O)[C@H]2O)c(=O)[nH]1 [6-azauridine]	restores strain growth	
COC(=O)Nc1nc2ccc(C(=O)c3cccs3)cc2[nH]1 [nocodazole]		dispersion of the perinuclear aggregates
